In brackets after ≈: the same amount, converted by molar mass.
Columns and labels:
physchem = settings: octanol/water phosphate buffer, pH 7.4
[1] = Volume of distribution at steady state in rat at 1 mg/kg, iv or 3 mg/kg, po; type: ADME, organism-based; settings: in vivo, read-out: Vdss
[2] = Oral bioavailability in rat at 3 mg/kg; type: ADME, organism-based; settings: in vivo
[3] = Aqueous solubility of the compound at pH 7.4; type: physicochemical
[4] = Apparent permeability in RRCK cells from apical to basolateral side; type: ADME, cell-based, Canis lupus familiaris, MDCKII-LE; settings: dog, MDCK
[5] = Tmax in freund's adjuvant-induced Lewis rat arthritis model blood at 15 mg/kg, po qd administered via oral gavage measured on day 7; type: ADME, organism-based

logD (physchem)	SMILES	further results
1.9	CN(c1ncnc2[nH]ccc12)[C@H]1C[C@@H](NS(=O)(=O)CC(F)(F)F)C1	–
2.4	CC(C)CS(=O)(=O)N[C@H]1C[C@@H](N(C)c2ncnc3[nH]ccc23)C1	–
1	CN(c1ncnc2[nH]ccc12)[C@H]1C[C@@H](NS(=O)(=O)CC2COC2)C1	Vd [1]: 1.99 L/kg; bioavailability [2]: 48.3%; solubility [3]: 437 µM (≈ 154 µg/mL); Papp A→B [4]: 3 ×10⁻⁶ cm/s
1.8	CN(c1ncnc2[nH]ccc12)[C@H]1C[C@@H](NS(=O)(=O)CC2CC2)C1	–
2.1	CN(c1ncnc2[nH]ccc12)[C@H]1C[C@@H](NS(=O)(=O)NCC2CC2)C1	–
1.3	CN(CCC#N)S(=O)(=O)N[C@H]1C[C@@H](N(C)c2ncnc3[nH]ccc23)C1	–
2.2	CCCCS(=O)(=O)C[C@H]1C[C@@H](N(C)c2ncnc3[nH]ccc23)C1	Vd [1]: 0.74 L/kg; bioavailability [2]: 119%; solubility [3]: 213 µM (≈ 71.7 µg/mL); Papp A→B [4]: 23 ×10⁻⁶ cm/s
1.6	CN(c1ncnc2[nH]ccc12)[C@H]1C[C@@H](NS(=O)(=O)C2CC2)C1	–
2.1	CCCNS(=O)(=O)C[C@H]1C[C@@H](N(C)c2ncnc3[nH]ccc23)C1	–
2.2	CN(C1CC1)S(=O)(=O)N[C@H]1C[C@@H](N(C)c2ncnc3[nH]ccc23)C1	–
1.2	COCCS(=O)(=O)N[C@H]1C[C@@H](N(C)c2ncnc3[nH]ccc23)C1	–
3	CCCCN(C)S(=O)(=O)C[C@H]1C[C@@H](N(C)c2ncnc3[nH]ccc23)C1	–
2.2	CN(c1ncnc2[nH]ccc12)[C@H]1C[C@@H](CS(=O)(=O)NCC2CC2)C1	–
2.4	CN(c1ncnc2[nH]ccc12)[C@H]1C[C@@H](NS(=O)(=O)CC2CCC2)C1	–
1.6	CCNS(=O)(=O)N[C@H]1C[C@@H](N(C)c2ncnc3[nH]ccc23)C1	–
1.6	CN(c1ncnc2[nH]ccc12)[C@H]1C[C@@H](CS(=O)(=O)C2CC2)C1	–
2.7	CN(c1ncnc2[nH]ccc12)[C@H]1C[C@@H](NS(=O)(=O)N2CCCCC2)C1	–
1.6	CN(c1ncnc2[nH]ccc12)[C@H]1C[C@@H](NS(=O)(=O)NC2CC2)C1	–
2.4	CN(c1ncnc2[nH]ccc12)[C@H]1C[C@@H](NS(=O)(=O)CCCC(F)(F)F)C1	–
1.2	CN(c1ncnc2[nH]ccc12)[C@H]1C[C@@H](NS(=O)(=O)NCCCC#N)C1	–
2.6	CN(c1ncnc2[nH]ccc12)[C@H]1C[C@@H](NS(=O)(=O)Cc2ccccc2)C1	–
2.1	CCN(C)S(=O)(=O)N[C@H]1C[C@@H](N(C)c2ncnc3[nH]ccc23)C1	–

logD (physchem)	SMILES	further results
1.5	COCCCS(=O)(=O)N[C@H]1C[C@@H](N(C)c2ncnc3[nH]ccc23)C1	–
2.4	CCCCS(=O)(=O)N[C@H]1C[C@@H](N(C)c2ncnc3[nH]ccc23)C1	–
1.5	CCNS(=O)(=O)C[C@H]1C[C@@H](N(C)c2ncnc3[nH]ccc23)C1	–
1.7	CCCS(=O)(=O)C[C@H]1C[C@@H](N(C)c2ncnc3[nH]ccc23)C1	–
1.4	CCS(=O)(=O)N[C@H]1C[C@@H](N(C)c2ncnc3[nH]ccc23)C1	–
2.6	CCCCNS(=O)(=O)C[C@H]1C[C@@H](N(C)c2ncnc3[nH]ccc23)C1	–
2.7	CN(CC1CC1)S(=O)(=O)C[C@H]1C[C@@H](N(C)c2ncnc3[nH]ccc23)C1	–
2	CCCNS(=O)(=O)N[C@H]1C[C@@H](N(C)c2ncnc3[nH]ccc23)C1	–
–	CN(c1ncnc2[nH]ccc12)[C@H]1C[C@@H](NS(=O)(=O)CCCC#N)C1	Vd [1]: 1.42 L/kg; bioavailability [2]: 61.1%; solubility [3]: 259 µM (≈ 90.2 µg/mL); Papp A→B [4]: 4 ×10⁻⁶ cm/s
1.2	CCS(=O)(=O)C[C@H]1C[C@@H](N(C)c2ncnc3[nH]ccc23)C1	–
1.2	CN(c1ncnc2[nH]ccc12)[C@H]1C[C@@H](NS(C)(=O)=O)C1	–
2.8	CN(c1ncnc2[nH]ccc12)[C@H]1C[C@@H](NS(=O)(=O)c2ccccc2)C1	–
2	CCCS(=O)(=O)N[C@H]1C[C@H](N(C)c2ncnc3[nH]ccc23)C1	–
2.4	CN(c1ncnc2[nH]ccc12)[C@H]1C[C@@H](NS(=O)(=O)CCC(F)(F)F)C1	–
2.7	CN(c1ncnc2[nH]ccc12)[C@H]1C[C@@H](CS(=O)(=O)c2ccccc2)C1	–
2.8	CN(c1ncnc2[nH]ccc12)[C@H]1C[C@@H](NS(=O)(=O)c2ccc(F)cc2)C1	–
2.1	CN(c1ncnc2[nH]ccc12)[C@H]1C[C@@H](CS(=O)(=O)N2CCCC2)C1	–
1.9	CCCS(=O)(=O)N[C@H]1C[C@@H](N(C)c2ncnc3[nH]ccc23)C1 [ABROCITINIB]	Vd [1]: 1.04 L/kg; bioavailability [2]: 95.6%; solubility [3]: 503 µM (≈ 163 µg/mL); Papp A→B [4]: 16 ×10⁻⁶ cm/s; Tmax [5]: 15 min
1.2	CCS(=O)(=O)N1CC(CC#N)(n2cc(-c3ncnc4[nH]ccc34)cn2)C1 [BARICITINIB]	–
2.7	N#CC[C@H](C1CCCC1)n1cc(-c2ncnc3[nH]ccc23)cn1 [RUXOLITINIB]	–
1.1	C[C@@H]1CCN(C(=O)CC#N)C[C@@H]1N(C)c1ncnc2[nH]ccc12 [TOFACITINIB]	–

Reference: ChEMBL document CHEMBL4020822, “Identification of N-{cis-3-[Methyl(7H-pyrrolo[2,3-d]pyrimidin-4-yl)amino]cyclobutyl}propane-1-sulfonamide (PF-04965842): A Selective JAK1 Clinical Candidate for the Treatment of Autoimmune Diseases” (J Med Chem, 2018)
